# Experimental data published in patent US10669258B2, “3-sulfonyl-5-aminopyridine-2,4-diol APJ agonists” (BRISTOL-MYERS SQUIBB COMPANY, priority 2016, dated 2020).
# pEC50: −log10 of the molar value.
# Molecular target: T1, human APJ receptor (Homo sapiens, UniProt P35414)
# T1 construct: expressed in transfected cells; host or cells: HEK293
# T1 sequence (P35414 1-380): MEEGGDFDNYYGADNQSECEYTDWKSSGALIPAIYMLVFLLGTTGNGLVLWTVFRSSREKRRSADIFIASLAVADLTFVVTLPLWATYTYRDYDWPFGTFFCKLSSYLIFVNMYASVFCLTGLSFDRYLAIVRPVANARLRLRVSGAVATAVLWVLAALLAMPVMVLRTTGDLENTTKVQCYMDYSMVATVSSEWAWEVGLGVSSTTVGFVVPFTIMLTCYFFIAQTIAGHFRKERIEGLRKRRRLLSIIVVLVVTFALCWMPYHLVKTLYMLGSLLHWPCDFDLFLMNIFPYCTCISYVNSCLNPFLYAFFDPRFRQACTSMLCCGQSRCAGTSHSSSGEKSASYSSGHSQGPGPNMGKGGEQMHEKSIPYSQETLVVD
# Assay: Intracellular cAMP accumulation assay (APJ hcAMP, HTRF)
# Assay type: cell-based
# Conditions: HEK293 cells stably expressing human APJ receptor; inhibition of forskolin-mediated cAMP production; Table 1; read-out: hAPJ cAMP EC50 Potency range
# Method in brief: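 Inhibition of forskolin (2 μM)-driven cAMP, with […], measured by HTRF after 30 min room-temperature compound exposure of stably transfected HEK293 cells. cAMP read from a standard curve; variable-slope fit gives EC50, and maximal inhibition is normalised to (Pyr1)apelin-13 as 100%.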
row,pEC50,Compound
1,7.00 to 8.00,"CCCCc1nc(O)c(S(=O)(=O)c2ccc(-c3cccnc3C)cc2)c(O)c1N1CCCCc2ccccc21 [Example 173, 6-butyl-3-((4-(2-methylpyridin-3-yl)phenyl)sulfonyl)-5-(2,3,4,5-tetrahydro-1H-benzo[b]azepin-1-yl)pyridine-2,4-diol]"
2,8.00 to 11.00,"CCCCc1nc(O)c(S(=O)(=O)c2ccc(-c3ccccc3C(N)=O)cc2)c(O)c1N(C)c1ccccc1F [Example 174, 4′-((6-butyl-5-((2-fluorophenyl)(methyl)a-mino)-2,4-dihydroxypyridin-3-yl)sulfonyl)-[1,1′-biphenyl]-2-carboxamide]"
3,8.00 to 11.00,"CCCCc1nc(O)c(S(=O)(=O)c2ccc(-c3cccnc3C)cc2)c(O)c1N(CC)c1cccc(C#N)c1 [Example 175, 3-((2-butyl-4,6-dihydroxy-5-((4-(2-methylpyridin-3-yl)phenyl)sulfonyl)pyri-dine-3-yl)(ethyl)amino)benzonitrile]"
4,8.00 to 11.00,"CCCCc1nc(O)c(S(=O)(=O)c2ccc(-c3ccccc3C(=O)NC)cc2)c(O)c1N(C)c1ccccc1F [Example 176, 4′-((6-butyl-5-((2-fluorophenyl)(methyl)a-mino)-2,4-dihydroxypyridin-3-yl)sulfonyl)-N-methyl-[1,1′-biphenyl]-2-carboxamide]"
5,7.00 to 8.00,"CCCCc1nc(O)c(S(=O)(=O)c2ccc(-c3ccc(F)nc3C)cc2)c(O)c1N1CCCCc2ccccc21 [Example 177, 6-butyl-3-((4-(6-fluoro-2-methylpyridin-3-yl)phenyl)sulfonyl)-5-(2,3,4,5-tetrahydro-1H-benzo[b]azepin-1-yl)pyridine-2,4-diol]"
6,8.00 to 11.00,"CCCCc1nc(O)c(S(=O)(=O)c2ccc(-c3ccc(F)nc3C)cc2)c(O)c1N(CC)c1cccc(C#N)c1 [Example 178, 3-((2-butyl-5-((4-(6-fluoro-2-methylpyridin-3-yl)phenyl)sulfonyl)-4,6-dihydroxypyridin-3-yl)(ethyl)amino)benzonitrile]"
7,7.00 to 8.00,"CCCCc1nc(O)c(S(=O)(=O)c2ccc(-c3ccccc3C(=O)N(C)C)cc2)c(O)c1N1CCCCc2ccccc21 [Example 179, 4′-((6-butyl-2,4-dihydroxy-5-(2,3,4,5-tetrahydro-1H-benzo[b]azepin-1-yl)pyridin-3-yl)sulfonyl)-N,N-dimethyl-[1,1′-biphenyl]-2-carboxamide]"
8,8.00 to 11.00,"CCCCc1nc(O)c(S(=O)(=O)c2ccc(-c3ccnc(F)c3C)cc2)c(O)c1N1CCCCc2ccccc21 [Example 180, 6-butyl-3-((4-(2-fluoro-3-methylpyridin-4-yl)phenyl)sulfonyl)-5-(2,3,4,5-tetrahydro-1H-benzo[b]azepin-1-yl)pyridine-2,4-diol]"
9,8.00 to 11.00,"CCCCc1nc(O)c(S(=O)(=O)c2ccc(-c3ccccc3C(N)=O)cc2)c(O)c1N(CC)c1cccc(C#N)c1 [Example 181, 4′-((6-butyl-5-((3-cyanophenyl)(ethyl)a-mino)-2,4-dihdyroxypyridin-3-yl)sulfonyl)-[1,1′-biphenyl]-2-carboxamide]"
10,8.00 to 11.00,"CCCCc1nc(O)c(S(=O)(=O)c2ccc(-c3ccccc3C(=O)NC)cc2)c(O)c1N(CC)c1cc(C)cc(C)c1 [Example 182, 4′-((6-butyl-5-((3,5-dimethyphenyl)(ethyl)a-mino)-2,4-dihydroxypyridin-3-yl)sulfonyl)-N-methyl-[1,1′-biphenyl]-2-carboxamide]"
11,7.00 to 8.00,"CCCCc1nc(O)c(S(=O)(=O)c2ccc(-c3cccnc3C)cc2)c(O)c1N(CC)c1cc(C)cc(C)c1 [Example 183, 6-butyl-5-((3,5-di-methylphenyl)(ethyl)a-mino)-3-((4-(2-methylpyridin-3-yl)phenyl)sulfonyl)pyri-dine-2,4-diol]"
12,7.00 to 8.00,"CCCCc1nc(O)c(S(=O)(=O)c2ccc(-c3ccccc3C(=O)NC)cc2)c(O)c1N1CCCCc2ccccc21 [Example 184, 4′-((6-butyl-2,4-dihydroxy-5-(2,3,4,5-tetrahydro-1H-benzo[b]azepin-1-yl)pyridin-3-yl)sulfonyl)-N-methyl-[1,1′-biphenyl]-2-carboxamide]"
13,8.00 to 11.00,"CCCCc1nc(O)c(S(=O)(=O)c2ccc(-c3ccccc3C(=O)NC)cc2)c(O)c1N(CC)c1cccc(C#N)c1 [Example 185, 4′-((6-butyl-5-((3-cyanophenyl)(ethyl)a-mino)-2,4-dihydroxypyridin-3-yl)sulfonyl)-N-methyl-[1,1′-biphenyl]-2-carboxamide]"
14,8.00 to 11.00,"CCCCc1nc(O)c(S(=O)(=O)c2ccc(-c3ccccc3C(=O)N(C)C)cc2)c(O)c1N(CC)c1cccc(C#N)c1 [Example 186, 4′-((6-butyl-5-((3-cyanophenyl)(ethyl)a-mino)-2,4-dihydroxypyridin-3-yl)sulfonyl)-N,N-dimethyl-[1,1′-biphenyl]-2-carboxamide]"
15,8.00 to 11.00,"CCN(c1ccccc1)c1c(-c2cnc(C)s2)nc(O)c(S(=O)(=O)c2ccc(-c3ccncc3C)cc2)c1O [Example 187, 5-(ethyl(phenyl)amino)-3-((4-(3-methylpyridin-4-yl)phenyl)sulfonyl)-6-(2-methylthiazol-5-yl)pyridine-2,4-diol]"
16,8.00 to 11.00,"CCN(c1ccccc1)c1c(-c2cnc(C)s2)nc(O)c(S(=O)(=O)c2ccc(-c3cccc(C(=O)NC)c3)cc2)c1O [Example 188, 4′-((5-(ethyl(phenyl)amino)-2,4-dihydroxy-6-(2-methylthiazol-5-yl)pyridin-3-yl)suflonyl)-N-methyl-[1,1′-biphenyl]-3-carboxamide]"
17,8.00 to 11.00,"CCN(c1ccccc1)c1c(-c2cnc(C)s2)nc(O)c(S(=O)(=O)c2ccc(-c3ccccc3C(=O)NC3CC3)cc2)c1O [Example 189, N-cyclopropyl-4′-((5-(ethyl(phenyl)amino)-2,4-dihydroxy-6-(2-methylthiazol-5-yl)pyridin-3-yl)sulfonyl)-[1,1′-biphenyl]-2-carboxamide]"
18,8.00 to 11.00,"CCN(c1ccccc1)c1c(-c2cnc(C)s2)nc(O)c(S(=O)(=O)c2ccc(-c3ccc(F)nc3C)cc2)c1O [Example 190, 5-(ethyl(phenyl)amino)-3-((4-(6-fluoro-2-methylpyridin-3-yl)phenyl)sulfonyl)-6-(2-methylthiazol-5-yl)pyridine-2,4-diol]"
19,8.00 to 11.00,"CCN(c1ccccc1)c1c(-c2cnc(C)s2)nc(O)c(S(=O)(=O)c2ccc(-c3ccnc(F)c3C)cc2)c1O [Example 191, 5-(ethyl(phenyl)amino)-3-((4-(2-fluoro-3-methylpyridin-4-yl)phenyl)sulfonyl)-6-(2-methylthiazol-5-yl)pyridine-2,4-diol]"
20,8.00 to 11.00,"CCN(c1ccccc1)c1c(-c2cnc(C)s2)nc(O)c(S(=O)(=O)c2ccc(-c3ccccc3C(=O)NC)cc2)c1O [Example 192, 4′-((5-(ethyl(phenyl)amino)-2,4-dihydroxy-6-(2-methylthiazol-5-yl)pyridin-3-yl)suflonyl)-N-methyl-[1,1′-biphenyl]-2-carboxamide]"
21,8.00 to 11.00,"CCCCc1nc(O)c(S(=O)(=O)c2ccc(-c3ccnc(F)c3C)cc2)c(O)c1N(C)c1ccccc1C [Example 193, 6-butyl-3-((4-(2-fluoro-3-methypyridin-4-yl)phenyl)sulfonyl)-5-(methyl(o-tolyl)amino)pyridine-2,4-diol]"
22,7.00 to 8.00,"CCCCc1nc(O)c(S(=O)(=O)c2ccc(-c3cccnc3C)cc2)c(O)c1N(C)c1ccccc1C [Example 194, 6-butyl-5-(methyl(o-tolyl)amino)-3-((4-(2-methylpyridin-3-yl)phenyl)sulfonyl)pyri-dine-2,4-diol]"
